One block for each compound: values may come before it.
Columns and labels:
[1] = system: Staphylococcus aureus 27217; assay: Checkerboard MIC test, pyrithiones with silver salts; assay type: cell-based; conditions: TSB pH 7.3, 35° C., 1 to 2 days
[2] = system: Pseudomonas aeruginosa 9027; assay: as above; assay type: cell-based; conditions: silver ion alone or in the inhibitory mixture; TSB pH 7.3, 35° C., 1 to 2 days
Escherichia coli 10536 = assay: as above; assay type: cell-based; conditions: TSB pH 7.3, 35° C., 1 to 2 days
Pityrosporum ovale 1452 = assay: as above; assay type: cell-based; conditions: silver ion alone or in the inhibitory mixture; Ushijima Medium pH 5.5, 35° C., 1 to 2 days
Candida albicans 10251 = assay: as above; assay type: cell-based; conditions: silver ion alone or in the inhibitory mixture; TSB pH 7.3, 35° C., 1 to 2 days
[3] = system: Aspergillus niger ATCC 6275; assay: MIC in Tryptic Soy Broth, microtiter (Example 1); assay type: cell-based; conditions: TSB, 28° C., incubated 7-8 days; single agent (NaPT without Cu)
[4] = system: Pseudomonas aeruginosa ATCC 9027; assay: MIC in Tryptic Soy Broth, microtiter (Example 1); assay type: cell-based; conditions: TSB, 28° C., incubated 5-6 days; single agent (NaPT without Cu)
Cephalosporium sp. = assay: MIC in Tryptic Soy Broth, microtiter (Example 1); assay type: cell-based; conditions: TSB, 28° C., incubated 5 days; single agent (NaPT without Cu)
[5] = system: seven strains of bacteria isolated from contaminated metalworking fluid; assay: Challenge test in metalworking fluid emulsion, bacterial viable plate counts (Example 4, FIG. 1); assay type: cell-based, Pseudomonas spp., Alcaligenes faecalis, Citrobacter freundii; conditions: 250 ppm (v/v) NaPT (40% active), 10 ppm Cu (II) or Zn(II); challenged twice over 40 days
Fusarium sp. [6] = assay: MIC in Tryptic Soy Broth, microtiter (Example 1); assay type: cell-based; conditions: TSB, 28° C., incubated 5 days; single agent (NaPT without Cu)
Description: Equal volumes of bacterial suspension (10^6 bacteria per milliliter of TSB) containing Pseudomonas aeruginosa ATCC 9027 or fungal spore suspension (10^5 spores per milliliter of TSB) containing Aspergillus niger ATCC 6275 or species of Fusarium and Cephalosporium isolated from contaminated metalworking fluid were added to each microtiter plate well, and the plates were incubated at 28° C. Controls were prepared for cultures inoculated into TSB with and without Cu (II).

[7] = system: Fusarium sp. and Cephalosporium sp.; assay: Challenge test in metalworking fluid emulsion, fungal viable plate counts (Example 4, FIG. 2); assay type: cell-based; conditions: 250 ppm (v/v) NaPT (40% active), 10 ppm Cu (II) or Zn(II); challenged twice over 40 days
Description: An emulsion was prepared from a 5% dilution of a concentrate, consisting of mineral oil (83.5%), sulfonated hydrocarbon (10.7%), oleic acid (1.0%), triethanolamine (0.8%), methyl tallowate (3.0%), and propylene glycol ether (1.0%) and dispensed into Erlenmeyer flasks. Each sample was challenged twice over a period of 40 days with 10^7 calls of bacteria and 10^5 fungal spores per milliliter of emulsion. The challenge consisted of seven strains of bacteria and 2 strains of fungi originally isolated from contaminated metalworking fluid: Pseudomonas rubescens NCIMB 12202, Pseudomonas stutzeri sp., Pseudomonas fluorescens NCIMB 12202, Pseudomonas aeruginosa CIMB 6749, Pseudomonas olevorans NCIMB 6576, Alcaligenes faecalis sp., Citrobacter freundii CIMB 12203, Fusarium sp., and Cephalosporium sp. The fluids were agitated continuously on a rotary shaker, and surviving bacteria and fungi were enumerated periodically by viable plate counts on Tryptic Soy Agar.

[8] = system: Pseudomonas aeruginosa NCIMB 6749; assay: Zone of inhibition test (paper disc on TSA); assay type: cell-based; conditions: 6.5 mm discs; 0.135% pyrithione, 0.1% ZnCl2 or both; 28° C., 24 hr
Fusarium sp. [9] = assay: Checkerboard MIC test, pyrithiones with zinc salts; assay type: cell-based; conditions: pyrithione alone or pyrithione concentration in the inhibitory mixture; TSB, 28 C, 5 days
Description: Mixtures of pyrithione and zinc or silver in various proportions were tested for relative efficacy by a modification of the procedure described by Dougherty, et al.
Equal volumes of bacteria (10^6 cells/ml) or fungi (10^5 spores/ml) were added to each microtiter plate well. The plates were incubated at 28 C for 3 days (bacteria) or 5 days (fungi), and the minimum inhibitory concentration (MIC) of biocide was determined. The Fractional Inhibitory Concentration (FIC=concentration of biocide in an inhibitory mixture divided by the MIC of the pure biocide) was determined, and the FIC Index (sum of the two FIC's) was calculated. The type of interaction was categorized according to the magnitude of the Index: Synergistic (<1), Additive (1), or Antagonistic (>1).

[10] = system: Staphylococcus aureus ATCC 27217; assay: Checkerboard MIC test, pyrithiones with zinc salts; assay type: cell-based; conditions: pyrithione alone or pyrithione concentration in the inhibitory mixture; TSB, 28 C, 3 days
[11] = system: Staphylococcus aureus ATCC 27217; assay: Zone of inhibition test (paper disc on TSA); assay type: cell-based; conditions: 6.5 mm discs; 0.135% pyrithione, 0.1% ZnCl2 or both; 28° C., 24 hr
[12] = system: Pseudomonas aeruginosa NCIMB 6749; assay: Checkerboard MIC test, pyrithiones with zinc salts; assay type: cell-based; conditions: pyrithione alone or pyrithione concentration in the inhibitory mixture; TSB, 28 C, 3 days
[13] = system: seven cultures of bacteria; assay: Challenge test in soluble oil metalworking fluid, bacteria (Example 6); assay type: cell-based; conditions: soluble oil MWF, 10 ppm Zn, 100 ppm NaPT, 50 ppm ZPT or 50 ppm CuPT as in column head
two cultures of fungi = assay: Challenge test in soluble oil metalworking fluid, fungi (Example 6); assay type: cell-based; conditions: soluble oil MWF, 10 ppm Zn, 100 ppm NaPT, 50 ppm ZPT or 50 ppm CuPT as in column head
[14] = system: Aspergillus niger ATCC 6275; assay: Checkerboard MIC test, pyrithiones with zinc salts; assay type: cell-based; conditions: pyrithione alone or in the inhibitory mixture with ZnO; TSB, 28 C, 5 days
[15] = system: Escherichia coli ATCC 10536; assay: Zone of inhibition test (paper disc on TSA); assay type: cell-based; conditions: 6.5 mm discs; 0.135% pyrithione, 0.1% ZnCl2 or both; 28° C., 24 hr
Ps. aeruginosa ATCC 9027 = assay: Checkerboard MIC test, pyrithiones with zinc salts; assay type: cell-based, Pseudomonas aeruginosa; conditions: pyrithione alone or in the inhibitory mixture with ZnO; TSB, 28 C, 3 days
[16] = silver ion alone or in the inhibitory mixture
[17] = ZPT alone or in the inhibitory mixture with silver salt

MIC Ag^+1 Ion [1, 16]: 9.5 ppm | MIC Ag^+1 Ion [2]: 3.8 ppm | MIC Ag^+1 Ion (Escherichia coli 10536; [16]): 18.8 ppm | MIC Ag^+1 Ion (Pityrosporum ovale 1452): 1.2 ppm | MIC Ag^+1 Ion (Candida albicans 10251): 9.8 ppm
Compound: [Cl][Ag] [AgCl2, AgCl]

Compound: O.O.O.O.O.O=S(=O)([O-])[O-].[Cu+2] [Cu (II), CuSO4.5H2O]
MIC [3]: >0.5 ppm | MIC [4]: >0.5 ppm | MIC (Cephalosporium sp.): >0.5 ppm | antibacterial efficacy in a metalworking fluid (FIG. 1) [5]: significantly reduced bacterial counts until the second challenge | MIC (Fusarium sp. [6]): >0.5 ppm | antifungal efficacy in a metalworking fluid (FIG. 2) [7]: little effect on reducing the growth of fungi

Compound: zinc pyrithione [ZPT]
Zone of Inhibition [8]: 10 mm | MIC ZPT [1, 17]: 4 ppm | MIC Pyrithione (Fusarium sp. [9]): 64 ppm | MIC Pyrithione [10]: 4 ppm | Zone of Inhibition [11]: 27 mm | MIC Pyrithione [12]: 256 ppm | BACTERIA (cfu/ml) ([13]; DAY 0): 3.2 × 10^7 cfu/ml | BACTERIA (cfu/ml) ([13]; DAY 6): 1000 cfu/ml | BACTERIA (cfu/ml) ([13]; DAY 13): 4400 cfu/ml | BACTERIA (cfu/ml) ([13]; DAY 20): 7700 cfu/ml | MIC ZPT (Escherichia coli 10536; [17]): 8 ppm | FUNGI (cfu/ml) (two cultures of fungi; DAY 0): 2.4 × 10^5 cfu/ml | FUNGI (cfu/ml) (two cultures of fungi; DAY 6): 1000 cfu/ml | FUNGI (cfu/ml) (two cultures of fungi; DAY 13): 10 cfu/ml | FUNGI (cfu/ml) (two cultures of fungi; DAY 20): 10 cfu/ml | MIC Pyrithione [14]: 64 ppm | Zone of Inhibition [15]: 31 mm | MIC Pyrithione (Ps. aeruginosa ATCC 9027): 512 ppm

From patent publication US8206732B2, “Pyrithione biocides enhanced by silver, copper, or zinc ions” (Arch Chemicals, Inc., priority 1999, dated 2012)
